Assay results: ChEMBL document CHEMBL4732203, “Synthesis of polyenylpyrrole derivatives with selective growth inhibitory activity against T-cell acute lymphoblastic leukemia cells” (Bioorg Med Chem Lett, 2021)

What was measured:
Type in all cases: functional, cell-based
[1] = test system: Raji; test: Cytotoxicity against human Raji cells assessed as reduction in cell viability incubated for 72 hrs
[2] = test system: CCRF-CEM; test: Cytotoxicity against human CCRF-CEM cells assessed as reduction in cell viability incubated for 72 hrs
[3] = test system: HSC-3; test: Cytotoxicity against human HSC-3 cells assessed as reduction in cell viability incubated for 3 days; settings: HSC-3, 72 h
[4] = test system: HeLa; test: Cytotoxicity against human HeLa cells assessed as reduction in cell viability incubated for 3 days; settings: 72 h

SMILES	IC50 [1]	IC50 [2]	IC50 [3]	IC50 [4]
CCOC(=O)/C=C/C=C/C=C/c1ccc[nH]1	> 10 µM	3.67 µM	–	–
CCOC(=O)/C=C/C=C/c1ccc[nH]1	> 10 µM	> 10 µM	–	–
COc1cc(/C=C/C=C/C=C/C=C/c2[nH]ccc2Cl)oc(=O)c1 [AUXARCONJUGATIN B]	5.74 µM	0.51 µM	–	–
COc1cc(\C(C)=C/C=C/C=C/C=C/c2[nH]ccc2Cl)oc(=O)c1C	> 10 µM	1.76 µM	–	–
CCOC(=O)/C=C/C=C/C=C/c1[nH]ccc1Cl	> 10 µM	2.42 µM	–	–
O=C(/C=C/C=C/C=C/C=C/c1[nH]ccc1Cl)OCc1ccccc1	6.7 µM	0.28 µM	–	–
CCOC(=O)/C=C/C=C/C=C/C=C/c1ccco1	> 10 µM	> 10 µM	–	–
O=C(/C=C/C=C/C=C/C=C/c1ccc[nH]1)OCc1ccccc1	1.4 µM	0.19 µM	–	–
CCOC(=O)/C=C/C=C/C=C/C=C/c1nccs1	> 10 µM	> 10 µM	–	–
CCOC(=O)/C=C/C=C/C=C/C=C/C=C/c1ccc[nH]1	> 10 µM	0.45 µM	–	–
O=C(/C=C/C=C/C=C/C=C/c1ccc[nH]1)c1ccccc1	5.99 µM	0.72 µM	–	–
CCOC(=O)/C=C/C=C/c1nccs1	> 10 µM	> 10 µM	–	–
CCOC(=O)/C=C/C=C/c1ccco1	> 10 µM	> 10 µM	–	–
CCOC(=O)/C=C/c1ccc[nH]1	> 10 µM	> 10 µM	–	–
CCOC(=O)/C=C/C=C/C=C/c1ccco1	> 10 µM	> 10 µM	–	–
CCOC(=O)/C=C/C=C/C=C/c1nccs1	4.35 µM	4.5 µM	–	–
CCOC(=O)/C=C/C=C/C=C/C=C/c1ccc[nH]1	4.09 µM	1.34 µM	–	–
O=C(/C=C/C=C/C=C/c1ccc[nH]1)c1ccccc1	9.89 µM	3.07 µM	–	–
CCOC(=O)/C=C/C=C/C=C/C=C/c1[nH]ccc1Cl	> 10 µM	0.27 µM	> 10 µM	> 10 µM
CCOC(=O)/C=C/C=C/C=C/C=C/c1cccn1C	> 10 µM	> 10 µM	–	–
O=C(/C=C/C=C/C=C/c1ccc[nH]1)OCc1ccccc1	> 10 µM	0.83 µM	–	–
CCOC(=O)/C=C/C=C/c1[nH]ccc1Cl	> 10 µM	> 10 µM	–	–
